Experiments:
direct sown rice [1] = test: Herbicidal effect test by soil treatment; format: in vivo, Oryza sativa; details: 1.6 g/a, 3 weeks after treatment
How it was run: (§1)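 Weed seeds, sown interspatially with crop species in sterilized diluvial soil, receive a uniform soil-surface spray of the compound as a diluted wettable powder. Injury is scored on a criteria scale three weeks later.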

Echinochloa crus-galli [2] = test: Herbicidal effect test by soil treatment; format: in vivo; details: 1.6 g/a, 3 weeks after treatment
How it was run: as §1

Setaria viridis [3] = test: Herbicidal effect test by soil treatment; format: in vivo; details: 1.6 g/a, 3 weeks after treatment
How it was run: as §1

Black-grass [4] = test: Herbicidal effect test by soil treatment; format: in vivo; details: 1.6 g/a, 3 weeks after treatment
How it was run: as §1

corn (Zea mays) [5] = test: Herbicidal effect test by soil treatment; format: in vivo; details: 1.6 g/a, 3 weeks after treatment
How it was run: as §1

Digitaria adscendes [6] = test: Herbicidal effect test by soil treatment; format: in vivo; details: 1.6 g/a, 3 weeks after treatment
How it was run: as §1

Chenopodium album [7] = test: Herbicidal effect test by soil treatment; format: in vivo; details: 1.6 g/a, 3 weeks after treatment
How it was run: as §1

soybean (Glycine max) [8] = test: Herbicidal effect test by soil treatment; format: in vivo; details: 1.6 g/a, 3 weeks after treatment
How it was run: as §1

Stellaria media [9] = test: Herbicidal effect test by soil treatment; format: in vivo; details: 1.6 g/a, 3 weeks after treatment
How it was run: as §1

Amaranthus retroflexus [10] = test: Herbicidal effect test by soil treatment; format: in vivo; details: 1.6 g/a, 3 weeks after treatment
How it was run: as §1

Beta vulgaris (beet) [11] = test: Herbicidal effect test by soil treatment; format: in vivo; details: 1.6 g/a, 3 weeks after treatment
How it was run: as §1

Ambrosia elatior [12] = test: Herbicidal effect test by soil treatment; format: in vivo; details: 1.6 g/a, 3 weeks after treatment
How it was run: as §1

Polygonum blumei [13] = test: Herbicidal effect test by soil treatment; format: in vivo; details: 1.6 g/a, 3 weeks after treatment
How it was run: as §1

[14] = tested on: Triticum aestivum (wheat); test: Herbicidal effect test by soil treatment; format: in vivo; details: 1.6 g/a, 3 weeks after treatment
How it was run: as §1

Avena fatua [15] = test: Herbicidal effect test by soil treatment; format: in vivo; details: 1.6 g/a, 3 weeks after treatment
How it was run: as §1

Abutilon avicennae [16] = test: Herbicidal effect test by soil treatment; format: in vivo; details: 1.6 g/a, 3 weeks after treatment
How it was run: as §1

Echinochloa crus-galli [17] = test: Herbicidal effect test in submerged condition by treatment during weed-growth stage (1); format: in vivo; details: 0.64 g/a, treated at 1st to 2nd leaf stage, 3 weeks after treatment
How it was run: (§2)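 Paddy-soil pots flooded to 4 cm water depth were sown and grown in a greenhouse at 25 to 30° C until weeds reached 1st to 2nd leaf stage. A wettable powder diluted in water to a predetermined formulation amount was applied to the water surface. Herbicidal effect was scored 3 weeks after treatment against set criteria.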

Monochoria vaginalis [18] = test: as above; format: in vivo; details: 0.64 g/a, treated at 1st to 2nd leaf stage, 3 weeks after treatment
How it was run: as §2

Scirpus juncoides [19] = test: as above; format: in vivo; details: 0.64 g/a, treated at 1st to 2nd leaf stage, 3 weeks after treatment
How it was run: as §2

direct sown rice [20] = test: Herbicidal effect test by foliage treatment; format: in vivo, Oryza sativa; details: 1.6 g/a; foliage treatment after growth of 14 days; 3 weeks after treatment
How it was run: (§3)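 Greenhouse-grown seedlings (14 days, 25 to 30° C) received a foliar application of the test compound as a water-diluted wettable powder; effect assessed after 3 weeks against set criteria.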

Echinochloa crus-galli [21] = test: Herbicidal effect test by foliage treatment; format: in vivo; details: 1.6 g/a; foliage treatment after growth of 14 days; 3 weeks after treatment
How it was run: as §3

Setaria viridis [22] = test: Herbicidal effect test by foliage treatment; format: in vivo; details: 1.6 g/a; foliage treatment after growth of 14 days; 3 weeks after treatment
How it was run: as §3

Black-grass [23] = test: Herbicidal effect test by foliage treatment; format: in vivo; details: 1.6 g/a; foliage treatment after growth of 14 days; 3 weeks after treatment
How it was run: as §3

corn (Zea mays) [24] = test: Herbicidal effect test by foliage treatment; format: in vivo; details: 1.6 g/a; foliage treatment after growth of 14 days; 3 weeks after treatment
How it was run: as §3

Digitaria adscendes [25] = test: Herbicidal effect test by foliage treatment; format: in vivo; details: 1.6 g/a; foliage treatment after growth of 14 days; 3 weeks after treatment
How it was run: as §3

Chenopodium album [26] = test: Herbicidal effect test by foliage treatment; format: in vivo; details: 1.6 g/a; foliage treatment after growth of 14 days; 3 weeks after treatment
How it was run: as §3

soybean (Glycine max) [27] = test: Herbicidal effect test by foliage treatment; format: in vivo; details: 1.6 g/a; foliage treatment after growth of 14 days; 3 weeks after treatment
How it was run: as §3

Stellaria media [28] = test: Herbicidal effect test by foliage treatment; format: in vivo; details: 1.6 g/a; foliage treatment after growth of 14 days; 3 weeks after treatment
How it was run: as §3

Amaranthus retroflexus [29] = test: Herbicidal effect test by foliage treatment; format: in vivo; details: 1.6 g/a; foliage treatment after growth of 14 days; 3 weeks after treatment
How it was run: as §3

Beta vulgaris (beet) [30] = test: Herbicidal effect test by foliage treatment; format: in vivo; details: 1.6 g/a; foliage treatment after growth of 14 days; 3 weeks after treatment
How it was run: as §3

Ambrosia elatior [31] = test: Herbicidal effect test by foliage treatment; format: in vivo; details: 1.6 g/a; foliage treatment after growth of 14 days; 3 weeks after treatment
How it was run: as §3

Polygonum blumei [32] = test: Herbicidal effect test by foliage treatment; format: in vivo; details: 1.6 g/a; foliage treatment after growth of 14 days; 3 weeks after treatment
How it was run: as §3

[33] = tested on: Triticum aestivum (wheat); test: Herbicidal effect test by foliage treatment; format: in vivo; details: 1.6 g/a; foliage treatment after growth of 14 days; 3 weeks after treatment
How it was run: as §3

Avena fatua [34] = test: Herbicidal effect test by foliage treatment; format: in vivo; details: 1.6 g/a; foliage treatment after growth of 14 days; 3 weeks after treatment
How it was run: as §3

Abutilon avicennae [35] = test: Herbicidal effect test by foliage treatment; format: in vivo; details: 1.6 g/a; foliage treatment after growth of 14 days; 3 weeks after treatment
How it was run: as §3

Echinochloa crus-galli [36] = test: Herbicidal effect test in submerged condition by treatment before weed-generation (1); format: in vivo; details: 0.64 g/a, water surface treated on day of sowing, 3 weeks after treatment
How it was run: (§4)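 Treatment was made before weed emergence by applying the diluted wettable powder to the flood water (4 cm) on the day of sowing, with rice transplanted at the 2.5th leaf stage. After 3 weeks in a greenhouse (25 to 30° C), effect was graded 0–5.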

Monochoria vaginalis [37] = test: as above; format: in vivo; details: 0.64 g/a, water surface treated on day of sowing, 3 weeks after treatment
How it was run: as §4

Scirpus juncoides [38] = test: as above; format: in vivo; details: 0.64 g/a, water surface treated on day of sowing, 3 weeks after treatment
How it was run: as §4

SMILES	herbicidal effect, d: direct sown rice (direct sown rice [1])	herbicidal effect, A: Echinochloa crus-galli (Echinochloa crus-galli [2])	herbicidal effect, E: Setaria viridis (Setaria viridis [3])	herbicidal effect, G: Black-grass (Black-grass [4])	herbicidal effect, b: corn (Zea mays) (corn (Zea mays) [5])	herbicidal effect, D: Digitaria adscendes (Digitaria adscendes [6])	herbicidal effect, K: Chenopodium album (Chenopodium album [7])	herbicidal effect, c: soybean (Glycine max) (soybean (Glycine max) [8])	herbicidal effect, M: Stellaria media (Stellaria media [9])	herbicidal effect, J: Amaranthus retroflexus (Amaranthus retroflexus [10])	herbicidal effect, f: Beta vulgaris (beet) (Beta vulgaris (beet) [11])	herbicidal effect, I: Ambrosia elatior (Ambrosia elatior [12])	herbicidal effect, L: Polygonum blumei (Polygonum blumei [13])	herbicidal effect, e: Triticum aestivum (wheat) [14]	herbicidal effect, F: Avena fatua (Avena fatua [15])	herbicidal effect, H: Abutilon avicennae (Abutilon avicennae [16])	herbicidal effect, A: Echinochloa crus-galli (Echinochloa crus-galli [17])	herbicidal effect, C: Monochoria vaginalis (Monochoria vaginalis [18])	herbicidal effect, B: Scirpus juncoides (Scirpus juncoides [19])	herbicidal effect, d: direct sown rice (direct sown rice [20])	also measured
COc1cc(OC)nc(NC(=O)NS(=O)(=O)c2c(C3=NOCC(C)(CI)O3)c(Cl)nn2C)n1 (stereo not shown) [Compound 4, N-((4,6-dimethoxypyrimidin-2-yl)aminocarbonyl)-3-chloro-4-(5-iodomethyl-5-methyl-5H,6H-1,4,2-dioxadin-3-yl)-1-methylpyrazole-5-sulfonamide]	0 (Herbicidal rate 5% or less (little effect))	0 (Herbicidal rate 5% or less (little effect))	0 (Herbicidal rate 5% or less (little effect))	0 (Herbicidal rate 5% or less (little effect))	0 (Herbicidal rate 5% or less (little effect))	0 (Herbicidal rate 5% or less (little effect))	1 (Herbicidal rate 5% or more and less than 20%)	0 (Herbicidal rate 5% or less (little effect))	1 (Herbicidal rate 5% or more and less than 20%)	0 (Herbicidal rate 5% or less (little effect))	0 (Herbicidal rate 5% or less (little effect))	2 (Herbicidal rate 20% or more and less than 40%)	0 (Herbicidal rate 5% or less (little effect))	0 (Herbicidal rate 5% or less (little effect))	0 (Herbicidal rate 5% or less (little effect))	0 (Herbicidal rate 5% or less (little effect))	0 (Herbicidal rate 5% or less (little effect))	3 (Herbicidal rate 40% or more and less than 70%)	3 (Herbicidal rate 40% or more and less than 70%)	0 (Herbicidal rate 5% or less (little effect))	herbicidal effect, A: Echinochloa crus-galli (Echinochloa crus-galli [21]): 0 (Herbicidal rate 5% or less (little effect)); herbicidal effect, E: Setaria viridis (Setaria viridis [22]): 0 (Herbicidal rate 5% or less (little effect)); herbicidal effect, G: Black-grass (Black-grass [23]): 0 (Herbicidal rate 5% or less (little effect)); herbicidal effect, b: corn (Zea mays) (corn (Zea mays) [24]): 0 (Herbicidal rate 5% or less (little effect)); herbicidal effect, D: Digitaria adscendes (Digitaria adscendes [25]): 0 (Herbicidal rate 5% or less (little effect)); herbicidal effect, K: Chenopodium album (Chenopodium album [26]): 4 (Herbicidal rate 70% or more and less than 90%); herbicidal effect, c: soybean (Glycine max) (soybean (Glycine max) [27]): 3 (Herbicidal rate 40% or more and less than 70%); herbicidal effect, M: Stellaria media (Stellaria media [28]): 2 (Herbicidal rate 20% or more and less than 40%); herbicidal effect, J: Amaranthus retroflexus (Amaranthus retroflexus [29]): 2 (Herbicidal rate 20% or more and less than 40%); herbicidal effect, f: Beta vulgaris (beet) (Beta vulgaris (beet) [30]): 1 (Herbicidal rate 5% or more and less than 20%); herbicidal effect, I: Ambrosia elatior (Ambrosia elatior [31]): 3 (Herbicidal rate 40% or more and less than 70%); herbicidal effect, L: Polygonum blumei (Polygonum blumei [32]): 3 (Herbicidal rate 40% or more and less than 70%); herbicidal effect, e: Triticum aestivum (wheat) [33]: 0 (Herbicidal rate 5% or less (little effect)); herbicidal effect, F: Avena fatua (Avena fatua [34]): 0 (Herbicidal rate 5% or less (little effect)); herbicidal effect, H: Abutilon avicennae (Abutilon avicennae [35]): 4 (Herbicidal rate 70% or more and less than 90%)
COc1cc(OC)nc(NC(=O)NS(=O)(=O)c2c(C3=NOCC(CI)O3)c(C)nn2C)n1 (stereo not shown) [Compound 6]	4 (Herbicidal rate 70% or more and less than 90%)	4 (Herbicidal rate 70% or more and less than 90%)	3 (Herbicidal rate 40% or more and less than 70%)	5 (Herbicidal rate 90% or more (almost complete death))	4 (Herbicidal rate 70% or more and less than 90%)	4 (Herbicidal rate 70% or more and less than 90%)	5 (Herbicidal rate 90% or more (almost complete death))	3 (Herbicidal rate 40% or more and less than 70%)	5 (Herbicidal rate 90% or more (almost complete death))	4 (Herbicidal rate 70% or more and less than 90%)	4 (Herbicidal rate 70% or more and less than 90%)	5 (Herbicidal rate 90% or more (almost complete death))	5 (Herbicidal rate 90% or more (almost complete death))	4 (Herbicidal rate 70% or more and less than 90%)	0 (Herbicidal rate 5% or less (little effect))	3 (Herbicidal rate 40% or more and less than 70%)	5 (Herbicidal rate 90% or more (almost complete death))	5 (Herbicidal rate 90% or more (almost complete death))	5 (Herbicidal rate 90% or more (almost complete death))	4 (Herbicidal rate 70% or more and less than 90%)	herbicidal effect, A: Echinochloa crus-galli (Echinochloa crus-galli [36]): 5 (Herbicidal rate 90% or more (almost complete death)); herbicidal effect, C: Monochoria vaginalis (Monochoria vaginalis [37]): 5 (Herbicidal rate 90% or more (almost complete death)); herbicidal effect, B: Scirpus juncoides (Scirpus juncoides [38]): 5 (Herbicidal rate 90% or more (almost complete death)); herbicidal effect, A: Echinochloa crus-galli (Echinochloa crus-galli [21]): 5 (Herbicidal rate 90% or more (almost complete death)); herbicidal effect, E: Setaria viridis (Setaria viridis [22]): 5 (Herbicidal rate 90% or more (almost complete death)); herbicidal effect, G: Black-grass (Black-grass [23]): 5 (Herbicidal rate 90% or more (almost complete death)); herbicidal effect, b: corn (Zea mays) (corn (Zea mays) [24]): 4 (Herbicidal rate 70% or more and less than 90%); herbicidal effect, D: Digitaria adscendes (Digitaria adscendes [25]): 5 (Herbicidal rate 90% or more (almost complete death)); herbicidal effect, K: Chenopodium album (Chenopodium album [26]): 5 (Herbicidal rate 90% or more (almost complete death)); herbicidal effect, c: soybean (Glycine max) (soybean (Glycine max) [27]): 4 (Herbicidal rate 70% or more and less than 90%); herbicidal effect, M: Stellaria media (Stellaria media [28]): 5 (Herbicidal rate 90% or more (almost complete death)); herbicidal effect, J: Amaranthus retroflexus (Amaranthus retroflexus [29]): 4 (Herbicidal rate 70% or more and less than 90%); herbicidal effect, f: Beta vulgaris (beet) (Beta vulgaris (beet) [30]): 5 (Herbicidal rate 90% or more (almost complete death)); herbicidal effect, I: Ambrosia elatior (Ambrosia elatior [31]): 5 (Herbicidal rate 90% or more (almost complete death)); herbicidal effect, L: Polygonum blumei (Polygonum blumei [32]): 5 (Herbicidal rate 90% or more (almost complete death)); herbicidal effect, e: Triticum aestivum (wheat) [33]: 4 (Herbicidal rate 70% or more and less than 90%); herbicidal effect, F: Avena fatua (Avena fatua [34]): 3 (Herbicidal rate 40% or more and less than 70%); herbicidal effect, H: Abutilon avicennae (Abutilon avicennae [35]): 5 (Herbicidal rate 90% or more (almost complete death))

Source: patent US7709636B2, “Pyrazole sulfonylurea compound and herbicide” (Nissan Chemical Industries, Ltd., priority 2004, dated 2010)
